Measurements: publication PMC7018803, “A randomized, placebo-controlled, phase 1 study to evaluate the effects of TAK-063 on ketamine-induced changes in fMRI BOLD signal in healthy subjects” (Psychopharmacology, 2019)

Experiment: Pharmacokinetics of TAK-063 in plasma after single oral dose
Type: in vivo, human
Text: The Statistics Department at Takeda Development Center Americas, Inc., generated a randomization schedule before the start of the study, and this randomization schedule maintained the investigational drug blind. During randomization, subjects were assigned a four-digit randomization sequence that encoded assignment of subjects to the treatment schedule. Subjects were randomized to one of nine treatment schedules and received placebo + ketamine (regimen A) and two of the following three treatment regimens: 3 mg of TAK-063 + ketamine (regimen B), 30 mg of TAK-063 + ketamine (regimen C), and 300 mg of TAK-063 + ketamine (regimen D). […] Treatment sequences are presented in Online Resource Supplementary Table S1. The study consisted of multiple visits with a different treatment protocol on each visit. The visits were standardized and included a screening period (day − 28 to day − 2), check-in (day − 1), a treatment period (days 1), completion of treatment visit (day 2), and a follow-up visit (day 14 ± 3 days after last TAK-063 dose). After each treatment period, subjects stayed overnight at the study site for observation and were discharged on day 2. Each participant completed the study when they completed the follow-up visit after their last treatment2.
Subjects checked in on day − 1 of each treatment period during which vital signs, electrocardiogram (ECG), and laboratory safety tests were repeated. On day 1 of each treatment period, subjects received a 3-, 10-, or 30-mg TAK-063 dose or placebo tablets. Participants then relaxed, slept, or watched movies while remaining in the research environment. Ketamine (0.12 mg/kg intravenous bolus over 60 s followed by a continuous infusion of 0.31 mg/kg/h over approximately 150 min) was administered 4 h after TAK-063 or placebo (Fig. 1). This ketamine dose was based on a previous study that achieved steady-state concentrations of 75 ng/mL and provided a robust BOLD signal with minimal psychotomimetic symptoms (De Simoni et al. [2013]). […]
Blood samples were collected for the determination of TAK-063 and ketamine concentrations, and ketamine concentrations were used to verify intravenous delivery of ketamine. Blood samples for determination of TAK-063 concentration were collected at pre-dose and at 0.5, 2, 3, 4.5, 6, 8, 10, 12, and 24 h post dose. Blood samples for determination of ketamine concentration were collected at 0.5, 1, 2, and 2.5 h after administration of ketamine. The target ketamine concentration was established at 75 ng/mL. PK samples were not collected from the arm in which ketamine was administered.
This study was not powered for any comparison, and the number of subjects was considered to be suitable for fulfilling study objectives. All statistical tests were two-tailed at α = 0.05 level of significance. For the analysis of the neuroimaging battery test results, effect sizes of > 0.3 were considered potentially meaningful, even without power to detect statistical significance. PK parameters of TAK-063 were generated using WinNonlin Version 6.3. fMRI images were analyzed using SPM8 and Matlab. Percent signal change for resting state data was calculated between pre-ketamine and post-ketamine infusion based on a priori ROIs using SPM’s Anatomy Toolbox (Yurgelun-Todd et al. [2016]). Percent signal change for the working memory task was calculated for the task versus baseline in the post-ketamine condition using the same ROI used for resting state (Yurgelun-Todd et al. [2016]). An analysis of variance (ANOVA) model was used to perform the analyses for BOLD signal changes (Yurgelun-Todd et al. [2016]). Cohen’s d effect sizes were calculated as d=μt^−μp^/sp where d is the effect size and μt^ and μp^ are the least-square means for a TAK-063 dose and placebo regimen, respectively, from the ANOVA model. sp is the pooled standard deviation from both regimens. No adjustments were made for multiple comparisons.

For `COc1cn(-c2ccc(-n3cccn3)cc2F)nc(-c2ccnn2-c2ccccc2)c1=O` [TAK-063], the AUC24 (3 mg single oral dose) was 111.3 ng·h/mL, the “Average concentration (Cav)” value (3 mg single oral dose) was 4.63 ng/mL and the AUC24 (10 mg single oral dose) was 549.2 ng·h/mL. The “Average concentration (Cav)” value (10 mg single oral dose) was 22.9 ng/mL, the AUC24 (30 mg single oral dose) was 1296.3 ng·h/mL and the “Average concentration (Cav)” value (30 mg single oral dose) was 53.9 ng/mL. For the same compound, the rate of absorption (oral administration) was “moderate” and the “Decline of plasma concentrations after Cmax” value (single oral dose) was “declined in a biphasic manner”.
